Results taken from patent US20260262643A1, “HERBICIDAL BENZOXAZINES” (FMC CORPORATION, priority 2022, published 2026).
Read-outs that look alike come from different tables or passages of the source.

Key:
ragweed [1] = experiment: Test A postemergence; type: in vivo, Ambrosia artemisiifolia; settings: Ambrosia artemisiifolia, post-emergence, 240 h; for pest or weed control at 125 g/ha: 125 g ai/ha; for pest or weed control at 500 g/ha: 500 g ai/ha
In short: (§1)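 Loam/sand soil; pre-em directed soil spray at planting, post-em spray at 1–2 leaf (2–10 cm). Compound in non-phytotoxic solvent + surfactant. Greenhouse 10 d; visual injury vs untreated, 0 = no effect, 100 = complete control.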

blackgrass [2] = experiment: Test A postemergence; type: in vivo, Alopecurus myosuroides; settings: Alopecurus myosuroides, post-emergence, 240 h; for pest or weed control at 125 g/ha: 125 g ai/ha, postemergence, 10 days, 0 to 100 scale (0 no effect, 100 complete control); for pest or weed control at 500 g/ha: 500 g ai/ha, Postemergence, 0 to 100 scale
In short: as §1

soybean = experiment: Test A preemergence; type: in vivo, Glycine max; settings: Glycine max, pre-emergence, 240 h, read-out: Plant response rating, Soybean; for plant injury at 125 g/ha: 125 g ai/ha, visual injury after 10 days, 0 to 100 scale, 0 is no effect, 100 is complete control; for plant injury at 500 g/ha: 500 g ai/ha, 0 to 100 scale (0 no effect, 100 complete control), 10 days
In short: as §1

foxtail, giant = experiment: Test A postemergence; type: in vivo, Setaria faberi; settings: Setaria faberi, post-emergence, 240 h; for pest or weed control at 125 g/ha: 125 g ai/ha; for pest or weed control at 500 g/ha: 500 g ai/ha
In short: as §1

ducksalad = experiment: Test B flooded paddy test; type: in vivo, Heteranthera limosa; settings: Heteranthera limosa, 312 h, 250 g ai/ha, Flood, 13 days, 0 to 100 scale (0 no effect, 100 complete control); read-out: Plant response rating, Ducksalad
In short: (§2)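 Visual scores from 0 (no effect) to 100 (complete kill) were assigned 13 days after treatment by comparison with controls. Seedlings had been treated at two leaves by adding compound to floodwater standing 3 cm deep, kept at that level in the greenhouse.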

goosegrass = experiment: Test A postemergence; type: in vivo, Eleusine indica; settings: Eleusine indica, post-emergence, 240 h; for pest or weed control at 125 g/ha: 125 g ai/ha; for pest or weed control at 500 g/ha: 500 g ai/ha
In short: as §1

ragweed [3] = experiment: Test A preemergence; type: in vivo, Ambrosia artemisiifolia; settings: Ambrosia artemisiifolia, pre-emergence, 240 h, read-out: Plant response rating, Ragweed; for pest or weed control at 125 g/ha: 125 g ai/ha, visual injury after 10 days, 0 to 100 scale, 0 is no effect, 100 is complete control; for pest or weed control at 500 g/ha: 500 g ai/ha, 0 to 100 scale (0 no effect, 100 complete control), 10 days
In short: as §1

kochia [4] = experiment: Test A postemergence; type: in vivo, Bassia scoparia; settings: Bassia scoparia, post-emergence, 240 h; for pest or weed control at 125 g/ha: 125 g ai/ha; for pest or weed control at 500 g/ha: 500 g ai/ha
In short: as §1

wheat [5] = experiment: Test A postemergence; type: in vivo, Triticum aestivum; settings: Triticum aestivum, post-emergence, 240 h; for plant injury at 125 g/ha: 125 g ai/ha; for plant injury at 500 g/ha: 500 g ai/ha
In short: as §1

blackgrass [6] = experiment: Test A preemergence; type: in vivo, Alopecurus myosuroides; settings: Alopecurus myosuroides, pre-emergence, 240 h, read-out: Plant response rating, Blackgrass; for pest or weed control at 125 g/ha: 125 g ai/ha, visual injury after 10 days, 0 to 100 scale, 0 is no effect, 100 is complete control; for pest or weed control at 500 g/ha: 500 g ai/ha, 0 to 100 scale (0 no effect, 100 complete control), 10 days
In short: as §1

wheat [7] = experiment: Test A preemergence; type: in vivo, Triticum aestivum; settings: Triticum aestivum, pre-emergence, 240 h, read-out: Plant response rating, Wheat; for plant injury at 125 g/ha: 125 g ai/ha, visual injury after 10 days, 0 to 100 scale, 0 is no effect, 100 is complete control; for plant injury at 500 g/ha: 500 g ai/ha, 0 to 100 scale (0 no effect, 100 complete control), 10 days
In short: as §1

corn = experiment: Test A preemergence; type: in vivo, Zea mays; settings: Zea mays, pre-emergence, 240 h; for Corn plant response rating (crop injury, 0 = no effect, 100 = complete kill) at 125 g/ha: 125 g ai/ha, visual injury after 10 days, 0 to 100 scale, 0 is no effect, 100 is complete control; for Corn plant response rating (crop injury, 0 = no effect, 100 = complete kill) at 500 g/ha: 500 g ai/ha, 0 to 100 scale (0 no effect, 100 complete control), 10 days
In short: as §1

kochia [8] = experiment: Test A preemergence; type: in vivo, Bassia scoparia; settings: Bassia scoparia, pre-emergence, 240 h, read-out: Plant response rating, Kochia; for pest or weed control at 125 g/ha: 125 g ai/ha, visual injury after 10 days, 0 to 100 scale, 0 is no effect, 100 is complete control; for pest or weed control at 500 g/ha: 500 g ai/ha, 0 to 100 scale (0 no effect, 100 complete control), 10 days
In short: as §1

rice = experiment: Test B flooded paddy test; type: in vivo, Oryza sativa; settings: Oryza sativa, 312 h; 250 g ai/ha, Flood, 13 days, 0 to 100 scale (0 no effect, 100 complete control); read-out: Plant response rating, Rice
In short: as §2

[9] = postemergence, 10 days, visual injury, 0 to 100 scale (0 no effect, 100 complete control), read-out: Plant response rating, Ragweed
[10] = read-out: Plant response rating, Blackgrass
[11] = postemergence, 10 days, visual injury, 0 to 100 scale (0 no effect, 100 complete control), read-out: Plant response rating, Foxtail, Giant
[12] = postemergence, 10 days, visual injury, 0 to 100 scale (0 no effect, 100 complete control), read-out: Plant response rating, Goosegrass
[13] = postemergence, 10 days, visual injury, 0 to 100 scale (0 no effect, 100 complete control), read-out: Plant response rating, Kochia
[14] = postemergence, 10 days, visual injury, 0 to 100 scale (0 no effect, 100 complete control), read-out: Plant response rating, Wheat

SMILES | pest or weed control at 500 g/ha (blackgrass [2]; [10]) [%] | plant injury at 125 g/ha (soybean) [%] | plant injury at 500 g/ha (soybean) [%] | pest or weed control at 250 g/ha (ducksalad) [%] | pest or weed control at 125 g/ha (ragweed [3]) [%] | pest or weed control at 500 g/ha (ragweed [3]) [%] | pest or weed control at 125 g/ha (blackgrass [6]) [%] | pest or weed control at 500 g/ha (blackgrass [6]) [%] | plant injury at 125 g/ha (wheat [7]) [%] | plant injury at 500 g/ha (wheat [7]) [%] | Corn plant response rating (crop injury, 0 = no effect, 100 = complete kill) at 125 g/ha (corn) [%] | Corn plant response rating (crop injury, 0 = no effect, 100 = complete kill) at 500 g/ha (corn) [%] | pest or weed control at 125 g/ha (kochia [8]) [%] | pest or weed control at 500 g/ha (kochia [8]) [%] | plant injury at 250 g/ha (rice) [%] | further results
Cc1cccc2c1O[C@@H](C)CN2C(=O)c1cccc(-n2cnc(C3CCCC3)n2)c1 [Compound 80, [3-(3-Cyclopentyl-1H-1,2,4-triazol-1-yl)phenyl][(2S)-2,3-dihydro-2,8-dimethyl-4H-1,4-benzoxazin-4-yl]methanone] | 40 | 0 | 0 | 0 | 0 | 0 | 20 | 40 | 0 | 10 | 0 | 20 | 10 | 80 | 0 | pest or weed control at 125 g/ha (ragweed [1]; postemergence, 10 days, 0 to 100 scale (0 no effect, 100 complete control), read-out: Ragweed plant response rating): 40%; pest or weed control at 500 g/ha (ragweed [1]; [9]): 60%; pest or weed control at 125 g/ha (blackgrass [2]; read-out: Blackgrass plant response rating): 0%; pest or weed control at 125 g/ha (foxtail, giant; postemergence, 10 days, 0 to 100 scale (0 no effect, 100 complete control), read-out: Foxtail, Giant plant response rating): 10%; pest or weed control at 500 g/ha (foxtail, giant; [11]): 50%; pest or weed control at 125 g/ha (goosegrass; postemergence, 10 days, 0 to 100 scale (0 no effect, 100 complete control), read-out: Goosegrass plant response rating): 10%; pest or weed control at 500 g/ha (goosegrass; [12]): 30%; pest or weed control at 125 g/ha (kochia [4]; postemergence, 10 days, 0 to 100 scale (0 no effect, 100 complete control), read-out: Kochia plant response rating): 40%; pest or weed control at 500 g/ha (kochia [4]; [13]): 70%; plant injury at 125 g/ha (wheat [5]; postemergence, 10 days, 0 to 100 scale (0 no effect, 100 complete control), read-out: Wheat plant response rating): 10%; plant injury at 500 g/ha (wheat [5]; [14]): 10%
Cc1cccc2c1O[C@@H](C)CN2C(=O)c1cccc(-n2cnc(Br)n2)c1 [Compound 61, [3-(3-Bromo-1H-1,2,4-triazol-1-yl)phenyl][(2S)-2,3-dihydro-2,8-dimethyl-4H-1,4-benzoxazin-4-yl]methanone] | 40 | 0 | 30 | 15 | 0 | 40 | 50 | 70 | 0 | 20 | 0 | 0 | 20 | 60 | 0 | pest or weed control at 125 g/ha (ragweed [1]; [9]): 30%; pest or weed control at 500 g/ha (ragweed [1]; Postemergence, 0 to 100 scale, read-out: Plant response rating, Ragweed): 40%; pest or weed control at 125 g/ha (blackgrass [2]; visual injury, read-out: Plant response rating, Blackgrass): 20%; pest or weed control at 125 g/ha (foxtail, giant; [11]): 60%; pest or weed control at 500 g/ha (foxtail, giant; Postemergence, 0 to 100 scale, read-out: Plant response rating, Foxtail, Giant): 80%; pest or weed control at 125 g/ha (goosegrass; [12]): 10%; pest or weed control at 500 g/ha (goosegrass; Postemergence, 0 to 100 scale, read-out: Plant response rating, Goosegrass): 50%; pest or weed control at 125 g/ha (kochia [4]; [13]): 20%; pest or weed control at 500 g/ha (kochia [4]; Postemergence, 0 to 100 scale, read-out: Plant response rating, Kochia): 70%; plant injury at 125 g/ha (wheat [5]; [14]): 10%; plant injury at 500 g/ha (wheat [5]; Postemergence, 0 to 100 scale, read-out: Plant response rating, Wheat): 20%
